From patent US4581359A, “Pharmacological treatments with N-7-substituted derivatives of theophylline” (priority 1984, dated 1986)
Several values for one entry are separate records, joined by “and”; a condition that tells them apart may be missing. Identical values can stand only once. Like-named read-outs stand apart in the source and are kept apart here.

What was measured:
in vivo = conditions: rabbit
Method: All experiments of this example were performed using female New Zealand White rabbits. These rabbits (2.4-3.6 kg) were housed in a controlled environment and allowed free access to water and food.
Before dosing with drug the rabbit ear hair was clipped and treated with hair remover lotion (sold under the trademark NAIR, Carter-Wallace, Inc., New York, N.Y.), a catheter (Quick-Cath, 20 Ga, Travenol Laboratories, Inc., Deerfield, Ill.) and sterile intermittent infusion plug were then inserted in the rabbit's ear vein for infusion. […] For each separate administration of theophylline, a suitable amount of aminophylline (40 mg/kg) was dissolved in distilled water to make 10 ml injectable solution which was administered into a rabbit's ear vein as a continuous infusion over a period of 15 minutes.
Blood samples were collected from an ear vein (in the opposite ear from the infusion) at predetermined time intervals. Before collecting each sample, the rabbit ear was treated topically with xylene to dilate the ear vein for convenient sample collection. Immediately after each blood sample was drawn, 0.4 ml of blood was transfered to the centrifuge tube and 0.4 ml of acetronitrile with appropriate internal standard was added to precipitate the protein and extract drug components. After vortexing well, the blood acetonitrile mixture was centrifuged at 3000×G for ten minutes, and 10 μl of supernatent solution was then injected into the HPLC.
The post infusion data of theophylline were fitted to a two-compartment open model using the same procedure as described above. Although samples were collected while infusion of dyphylline was continuing, only post infusion data were used for dyphylline pharmacokinetic analysis.

[1] = Dyphylline 20 min intravenous infusion in two healthy male subjects: pharmacokinetics, blood pressure, pulse (Example 2); format: in vivo, human; conditions: for V2, volume of peripheral compartment: Vd - V1; for Css, steady state: infusion rate/V1 Ke1, predicted only; for half-life / k el / Vd: human, in vivo, iv, 1000 mg; for half-life: 0.693/β
Method: 1000 mg of the drug dyphylline was infused over twenty minutes in two heathy male patients to determine the volume of distribution of the central compartment.
A physician evaluated two male volunteer subjects for their drug and disease histories. […] The subjects fasted from 10:00 p.m. before dosing at 7:30 a.m. the following day until four hours post dosing, after which food (except xanthines; i.e. chocolate, tea, coffee) and beverages were allowed ad lib.
A dose of 1,000 mg of dyphylline (Neothylline®) diluted in normal saline (0.9 percent) was administered at a rate of 50 mg/min via a constant infusion pump for twenty minutes. Blood pressure and electrocardiogram readings were monitored by a physician.
Whole blood (7 cc) was collected from each subject at time zero just prior to dosing and at 10, 15, 20, 30, 40 minutes and 1.0, 1.5, 2.0, 3.0, 4.0, 5.0, 6.0, 7.0, 8.0, 12.0, and 16.0 hours post dosing with a syringe. The heparin lock was cleared of all heparin solution and the lock filled with subject blood by using a disposable syringe prior to sampling. Each sample was then collected in a new disposable syringe and immediately transferred to a heparinized vacuum tube. After each sampling, the heparin lock was flushed and filled with heparin (10 u/ml). Once samples had been transferred to vacuum tubes, they were inverted several times, then stored in crushed ice until centrifuged and the plasma collected. Plasma samples were then frozen until assayed.
Plasma and urine samples were assayed by high-pressure liquid chromatography (HPLC) as reported by Gisclon, in the article mentioned above.
Plasma samples were prepared for assay by mixing 0.5 ml of plasma with 0.5 ml of acetonitrile containing β-hydroxyethyltheophylline (40 mcg/ml) as internal standard, and vortexed 15 seconds. The plasma sample with its protein precipitate was then centrifuged for 15 minutes at 2800 rpm and 5-40 μl injected into the HPLC.
FIGS. 5 and 6 show dyphylline plasma concentration vs. time curves for the subjects. Solid circles are the data points which were obtained by duplicate analysis of each sample by different analysts and the solid line represents the predicted values obtained after fitting the data with an Autoan computer package which uses CSTRIP and NONLIN (John G. Wagner, Fundamentals of Clinical Pharmacokinetics, Drug Intelligence Publications,Inc., Hamilton, Ill., 1975). This program determined that the data from time zero to 480 min. (8 hr) for subject one and 420 min. (7 hr) for subject two were compatible with a two compartment open model with zero order infusion for 20 minutes and first order elimination from the central compartment only. The fit to the data was quite good with r^2 =0.996 for subject one and 0.997 for subject two. The average percent deviation for the predicted lines from the data points was 7.7 percent and the estimated concentrations averaged 98.9 percent of the observed concentrations.

[2] = cited from earlier work
[3] = cited from earlier work; remark: listed apart in the source
[4] = Concomitant dyphylline and aminophylline in two horses: plasma concentration, blood pressure, pulse (Example 3); conditions: horse, plasma, iv, 20 mg/kg, dyphylline peak plasma concentration, 20 mg/kg bolus
[5] = intravenous, per day per 70 kg person, Zuidema

For Cn1c(=O)c2c(ncn2CC(O)CO)n(C)c1=O (centres unmarked) [dyphylline, dihydroxypropyl theophylline], the “effect of dyphylline on half-life of theophylline” value (in vivo) was “does not appear to alter the half-life of theophylline”, the “plasma concentration of dyphylline not toxic in the presence of about 100 mcg/ml theophylline” value (in vivo) was “about 600 mcg/ml” and the Vd (in vivo; iv, 666.7 mg/kg, average apparent volume of distribution of dyphylline administered with theophylline) was 0.41 L/kg. The adverse side effects ([1]; 1000 mg over 20 min, two subjects) was “No adverse side effects were observed or reported”, the “Blood pressure, diastolic, Subject Two” value ([1]; 10 M, 15 M, 20 M (end), 30 M, 40 M, 60 M, 90 M, predose 125/80) was 80 mm Hg and 85 mm Hg and 75 mm Hg and the K12 ([1]; Subject 1, 1000 mg over 20 min) was 1.94 h⁻¹. For the same molecule, the K21 ([1]; Subject 1, 1000 mg over 20 min) was 2.50 h⁻¹, the α ([1]; Subject 1, 1000 mg over 20 min) was 4.73 h⁻¹ and the “V2, volume of peripheral compartment” value ([1]; Subject 1) was 30.28 L. For the same molecule, the “Css, steady state” value ([1]; Subject 1) was 142.56 µg/mL, the K12 ([1]; Subject 2, 1000 mg over 20 min) was 4.02 h⁻¹ and the K21 ([1]; Subject 2, 1000 mg over 20 min) was 4.39 h⁻¹. The α ([1]; Subject 2, 1000 mg over 20 min) was 8.83 h⁻¹, the “V2, volume of peripheral compartment” value ([1]; Subject 2) was 25.45 L and the “Css, steady state” value ([1]; Subject 2) was 142.13 µg/mL. For the same molecule, the “blood pressure and pulse rate” value ([1]; during the study) was “essentially unchanged”, the half-life ([1]; Subject 1) was 2.11 h and the k el ([1]; Subject 1, 1000 mg over 20 min, read-out: Ke1 (converted)) was 0.000172 s⁻¹. It also gave a k el ([1]; Subject 1, 1000 mg over 20 min, read-out: β (converted)) of 9.17e-05 s⁻¹, a Vd ([1]; Subject 1, read-out: V1) of 33.9 L and a Vd ([1]; Subject 1, read-out: V3 (footnote: Vd, total volume of distribution)) of 64.2 L. It also gave a half-life ([1]; Subject 2) of 1.66 h, a k el ([1]; Subject 2, 1000 mg over 20 min, read-out: Ke1 (converted)) of 0.000233 s⁻¹ and a k el ([1]; Subject 2, 1000 mg over 20 min, read-out: β (converted)) of 0.000117 s⁻¹. For the same molecule, the Vd ([1]; Subject 2, read-out: V1) was 25.1 L, the Vd ([1]; Subject 2, read-out: V3 (footnote: Vd, total volume of distribution)) was 50.6 L and the Vd ([1]; two subjects, range, read-out: volume of the central compartment per kg) was 0.35 to 0.47 L/kg. It also gave a Vd ([1]; two subjects, read-out: total volume of distribution, average) of roughly 0.8 L/kg, a Vd ([1]; two subjects, read-out: volume of the central compartment) of 25 to 34 L and a Vd ([1]; two subjects, read-out: volume of the central compartment, average) of roughly 0.41 L/kg. For the same molecule, the “lowest therapeutic response toxic level in steady state” value ([2]; blood, calculated by Zuidema from data of Svedmyr) was 90 µg/mL, the “calculated probable dosage to produce 40 mcg/ml in blood” value [2, 5] was 13.7 gm and the “calculated probable dosage to produce 90 mcg/ml in blood” value [2, 5] was 30.8 gm. For the same molecule, the adverse effect ([3]; 400 mg intravenous, about 48 mcg/ml, Zuidema 1981) was “no adverse effect”, the plasma concentration ([3]; 400 mg intravenous, very short time, Zuidema 1981) was “about 48 mcg/ml” and the protein binding ([3]; Gisclon et al.) was “may bind nonlinearly to protein”. The “intravenous dyphylline accounted for in the urine” value ([3]; Lawyer) was “forty-four”, the peak plasma concentration ([3]; intravenous over ten minutes, one patient, Lawyer) was 17.4 µg/mL and the “conversion to theophylline in the body” value ([3]; literature) was “not converted to theophylline in the body”. The tissue distribution ([3]; literature) was “penetrate the central nervous system, to infiltrate heart tissue and to distribute to lung tissue”, the initial distribution volume ([3]; person, 73 kg, Lawyer) was 26.2 L and the “total or steady state volume of distribution” value ([3]; person, 73 kg, Lawyer) was 32.1 L. It also gave a Cmax ([4]; first value, presumably first horse) of 46 µg/mL and a Cmax ([4]; second value, presumably second horse) of 88 µg/mL.
